In patent US10722501B2 (BAYER AKTIENGESELLSCHAFT, priority 2016, dated 2020):

Each compound was assayed against T1, recombinant full-length human prolyl endopeptidase (PREP) (Homo sapiens, UniProt P48147) (assay: Biochemical human prolyl endopeptidase (PREP) assay with fluorescently labelled substrate). Details: substrate Z-Gly-Pro-AMC 50 μM, 32° C., 60 min; some as mean values from multiple independent determinations.
T1 construct: To recombinant full-length human prolyl endopeptidase (PREP, R&D-Systems, 4308-SE); purchased R&D-Systems 4308-SE
T1 sequence (P48147 1-710): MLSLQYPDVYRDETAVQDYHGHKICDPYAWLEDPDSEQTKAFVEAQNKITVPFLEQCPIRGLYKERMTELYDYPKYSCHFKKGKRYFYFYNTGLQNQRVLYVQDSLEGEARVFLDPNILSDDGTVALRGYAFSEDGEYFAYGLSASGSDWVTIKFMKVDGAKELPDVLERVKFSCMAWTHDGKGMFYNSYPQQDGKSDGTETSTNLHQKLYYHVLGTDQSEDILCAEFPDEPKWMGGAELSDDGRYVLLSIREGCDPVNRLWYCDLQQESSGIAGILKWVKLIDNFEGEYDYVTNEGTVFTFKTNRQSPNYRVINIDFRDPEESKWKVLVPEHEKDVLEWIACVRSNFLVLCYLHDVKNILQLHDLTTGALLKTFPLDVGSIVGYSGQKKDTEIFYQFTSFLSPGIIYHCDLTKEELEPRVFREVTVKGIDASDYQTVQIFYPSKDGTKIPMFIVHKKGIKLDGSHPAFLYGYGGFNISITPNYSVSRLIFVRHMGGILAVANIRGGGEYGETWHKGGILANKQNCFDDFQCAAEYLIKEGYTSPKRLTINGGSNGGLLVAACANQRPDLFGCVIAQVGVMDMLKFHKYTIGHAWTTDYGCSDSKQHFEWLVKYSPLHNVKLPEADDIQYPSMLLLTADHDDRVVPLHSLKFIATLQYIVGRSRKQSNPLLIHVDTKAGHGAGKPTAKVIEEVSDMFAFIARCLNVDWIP
Method: B-1 Biochemical Human Prolyl Endopeptidase (PREP) Assay for Identification of Inhibitors of PREP Activity Using a Fluorescently Labelled Substrate Principle of the Assay:
The enzymatic conversion of the fluorescent peptide substrate was observed on the basis of the measurement of the fluorescence intensity. The enzyme activity was determined by the ascertaining of the initial slope in the increase in fluorescence. Compounds that inhibit PREP were identified on the basis of the decrease in the initial slope compared to a reaction mixture without test compound.
Determination of Activity:
IC50 values were determined by the plotting of the percentage PREP activity against the concentration of the test substance by interpolation.
To recombinant full-length human prolyl endopeptidase (PREP, R&D-Systems, 4308-SE; final concentration, for example, 0.4 nM, volume: 25 μl) in reaction buffer (50 mM Tris-HCl, pH 7.5; 150 mM NaCl; 0.13% BSA, 5 mM EDTA, 3 mM GSH, 0.005% Brij-35) was added a test compound (in DMSO, in an appropriate final concentration range from 1 nM to 30 μM, volume: 1 μl) in a well of a 384-well microtitre plate. The reaction was initiated by adding the substrate Z-Gly-Pro-AMC (final concentration 50 μM; Z=carboxybenzyl; AMC=7-amino-4-methylcoumarin, volume: 25 μl). The progress of the PREP reaction was observed by measuring the fluorescence intensity in a Tecan SAFIRE II plate spectrophotometer at 32° C. over a period of 60 min (excitation wavelength: 360 nm, emission wavelength: 465 nm).
Table B-1 below collates the IC50 values thus obtained from the human prolyl endopeptidase assay for individual working examples of the invention (some as mean values from multiple independent individual determinations).

SMILES	IC50
O=C([C@@H]1CCCc2nn(Cc3ccnc(C(F)(F)F)c3F)c(=O)n21)N1CC[C@@H](F)C1 [Example 478, (5S)-5-{[(3R)-3-Fluoropyrrolidin-1-yl]carbonyl}-2-{[3-fluoro-2-(trifluoromethyl)pyridin-4-yl]methyl}-5,6,7,8-tetrahydro[1,2,4]triazolo[4,3-a]pyridin-3(2H)-one]	2.65 nM
O=C([C@@H]1CCCc2nn(Cc3ncc(Cl)cc3F)c(=O)n21)N1CCC(F)(F)C1 [Example 406, (5S)-2-[(5-Chloro-3-fluoropyridin-2-yl)methyl]-5-[(3,3-difluoropyrrolidin-1-yl)carbonyl]-5,6,7,8-tetrahydro[1,2,4]triazolo[4,3-a]pyridin-3(2H)-one]	3.6 nM
O=C(C1CCCc2nn(Cc3ccc(C(F)(F)F)cc3)c(=O)n21)N1CCCC1 (racemic) [Example 1, (5RS)-5-(Pyrrolidin-1-ylcarbonyl)-2-[4-(trifluoromethyl)benzyl]-5,6,7,8-tetrahydro[1,2,4]triazolo[4,3-a]pyridin-3(2H)-one]	1.75 nM
O=C(C1CCCc2nn(Cc3cccc(C(F)(F)F)c3)c(=O)n21)N1CCCC1 (racemic) [Example 19, (5RS)-5-(Pyrrolidin-1-ylcarbonyl)-2-[3-(trifluoromethyl)benzyl]-5,6,7,8-tetrahydro[1,2,4]triazolo[4,3-a]pyridin-3(2H)-one]	0.57 nM
O=C([C@@H]1CCCc2nn(Cc3cccc(Cl)n3)c(=O)n21)N1CC[C@H](F)C1 [Example 386, (5S)-2-[(6-Chloropyridin-2-yl)methyl]-5-{[(3S)-3-fluoropyrrolidin-1-yl]carbonyl}-5,6,7,8-tetrahydro[1,2,4]triazolo[4,3-a]pyridin-3(2H)-one]	0.94 nM
O=C([C@@H]1CCC(F)(F)c2nn(Cc3ncc(C(F)(F)F)cc3Cl)c(=O)n21)N1CCC(F)(F)C1 [Example 590, (5S)-2-{[3-Chloro-5-(trifluoromethyl)pyridin-2-yl]methyl}-5-[(3,3-difluoropyrrolidin-1-yl)carbonyl]-8,8-difluoro-5,6,7,8-tetrahydro[1,2,4]triazolo[4,3-a]pyridin-3(2H)-one]	3.9 nM
O=C([C@@H]1CCCc2nn(Cc3cc(C(F)(F)F)ccn3)c(=O)n21)N1CCCC1 [Example 93, (5S)-5-(Pyrrolidin-1-ylcarbonyl)-2-{[4-(trifluoromethyl)pyridin-2-yl]methyl}-5,6,7,8-tetrahydro[1,2,4]triazolo[4,3-a]pyridin-3(2H)-one]	6 nM
O=C(C1C(C(F)(F)F)CCc2nn(Cc3ccc(Cl)cn3)c(=O)n21)N1CC[C@H](F)C1 (single isomer, unassigned) [Example 299]	3.5 nM
O=C([C@@H]1CCCc2nn(Cc3ccc(C(F)(F)F)nc3)c(=O)n21)N1CC2CC1C2 [Example 199, (5S)-5-(2-Azabicyclo[2.1.1]hex-2-ylcarbonyl)-2-{[6-(trifluoromethyl)pyridin-3-yl]methyl}-5,6,7,8-tetrahydro[1,2,4]triazolo[4,3-a]pyridin-3(2H)-one]	59 nM
O=C([C@@H]1CCCc2nn(Cc3ncc(F)cc3F)c(=O)n21)N1CC(F)C1 [Example 410, (5S)-2-[(3,5-Difluoropyridin-2-yl)methyl]-5-[(3-fluoroazetidin-1-yl)carbonyl]-5,6,7,8-tetrahydro[1,2,4]triazolo[4,3-a]pyridin-3(2H)-one]	7.7 nM
Cc1ccc(Cn2nc3n(c2=O)C(C(=O)N2CC(F)(F)C2)CCC3)cc1 (single isomer, unassigned) [Example 115, (5RS)-5-[(3,3-Difluoroazetidin-1-yl)carbonyl]-2-(4-methylbenzyl)-5,6,7,8-tetrahydro[1,2,4]triazolo[4,3-a]pyridin-3(2H)-one]	1.1 nM
O=C([C@@H]1CCCc2nn(Cc3ccc(Br)cn3)c(=O)n21)N1CC[C@H](F)C1 [Example 510, (5S)-2-[(5-Bromopyridin-2-yl)methyl]-5-{[(3S)-3-fluoropyrrolidin-1-yl]carbonyl}-5,6,7,8-tetrahydro[1,2,4]triazolo[4,3-a]pyridin-3(2H)-one]	0.535 nM
O=C(C1CC(C(F)(F)F)Cc2nn(Cc3ccnc(C(F)(F)F)c3F)c(=O)n21)N1CC(F)C1 (single isomer, unassigned) [Example 255, (5RS,7RS)-5-[(3-Fluoroazetidin-1-yl)carbonyl]-2-{[3-fluoro-2-(trifluoromethyl)pyridin-4-yl]methyl}-7-(trifluoromethyl)-5,6,7,8-tetrahydro[1,2,4]triazolo[4,3-a]pyridin-3(2H)-one]	15.1 nM
O=C(C1CCCc2nn(Cc3noc(-c4cccc(C(F)(F)F)c4)n3)c(=O)n21)N1CCCC1 (racemic) [Example 69, (5RS)-5-(Pyrrolidin-1-ylcarbonyl)-2-({5-[3-(trifluoromethyl)phenyl]-1,2,4-oxadiazol-3-yl}methyl)-5,6,7,8-tetrahydro[1,2,4]triazolo[4,3-a]pyridin-3(2H)-one]	210 nM
O=C([C@@H]1CCCc2nn(Cc3ccnc(C(F)(F)F)c3F)c(=O)n21)N1CC(O)C1 [Example 481, (5S)-2-{[3-Fluoro-2-(trifluoromethyl)pyridin-4-yl]methyl}-5-[(3-hydroxyazetidin-1-yl)carbonyl]-5,6,7,8-tetrahydro[1,2,4]triazolo[4,3-a]pyridin-3(2H)-one]	27.5 nM
CCn1nc(C(F)(F)F)cc1Cn1nc2n(c1=O)[C@H](C(=O)N1CC(F)C1)CCC2 [Example 363, (5S)-2-{[1-Ethyl-3-(trifluoromethyl)-1H-pyrazol-5-yl]methyl}-5-[(3-fluoroazetidin-1-yl)carbonyl]-5,6,7,8-tetrahydro[1,2,4]triazolo[4,3-a]pyridin-3(2H)-one]	2.3 nM
Cn1nc(Cn2nc3n(c2=O)[C@H](C(=O)N2CC(F)(F)C2)CCC3)c2cccnc21 [Example 415, (5S)-5-[(3,3-Difluoroazetidin-1-yl)carbonyl]-2-[(1-methyl-1H-pyrazolo[3,4-b]pyridin-3-yl)methyl]-5,6,7,8-tetrahydro[1,2,4]triazolo[4,3-a]pyridin-3(2H)-one]	5.4 nM
COC1CN(C(=O)C2CCCc3nn(Cc4ccc(C)cc4)c(=O)n32)C1 (racemic) [Example 125, (5RS)-5-[(3-Methoxyazetidin-1-yl)carbonyl]-2-(4-methylbenzyl)-5,6,7,8-tetrahydro[1,2,4]triazolo[4,3-a]pyridin-3(2H)-one]	25 nM
O=C([C@@H]1CCCc2nn(Cc3ccc(Cl)nc3)c(=O)n21)N1CCC2CC21 (single isomer, unassigned) [Example 197]	235 nM
O=C(C1C(C(F)(F)F)CCc2nn(Cc3ncc(Cl)cc3Cl)c(=O)n21)N1CC(F)C1 (single isomer, unassigned) [Example 307, (5RS,6RS)-2-[(3,5-Dichloropyridin-2-yl)methyl]-5-[(3-fluoroazetidin-1-yl)carbonyl]-6-(trifluoromethyl)-5,6,7,8-tetrahydro[1,2,4]triazolo[4,3-a]pyridin-3(2H)-one]	98.5 nM
O=C(C1CCCc2nn(Cc3ccc(OC(F)(F)F)c(Cl)c3)c(=O)n21)N1CCCC1 (racemic) [Example 73, (5RS)-2-[3-Chloro-4-(trifluoromethoxy)benzyl]-5-(pyrrolidin-1-ylcarbonyl)-5,6,7,8-tetrahydro[1,2,4]triazolo[4,3-a]pyridin-3(2H)-one]	1.5 nM
O=C([C@@H]1CCCc2nn(Cc3ccc(F)c(F)c3)c(=O)n21)N1C[C@@H](F)[C@@H](F)C1 [Example 467, (5S)-2-(3,4-Difluorobenzyl)-5-{[(3R,4S)-3,4-difluoropyrrolidin-1-yl]carbonyl}-5,6,7,8-tetrahydro[1,2,4]triazolo[4,3-a]pyridin-3(2H)-one]	0.49 nM
O=C([C@@H]1CCCc2nn(Cc3ccc(Cl)c(F)c3)c(=O)n21)N1CCC(F)(F)C1 [Example 464, (5S)-2-(4-Chloro-3-fluorobenzyl)-5-[(3,3-difluoropyrrolidin-1-yl)carbonyl]-5,6,7,8-tetrahydro[1,2,4]triazolo[4,3-a]pyridin-3(2H)-one]	0.51 nM
